Reference: patent publication US7384636B2, “Polypeptide” (Kabushiki Kaisha Hayashibara Seibutsu Kagaku Kenkyujo, priority 2003, dated 2008)

Tests used:
Assay type in all cases: in vivo
OMP [1] = test: Titer against OMP, BALB/c mice immunized intranasally (Experiment 8); details: intranasal
Method: (§1) All the mice were bled after one week.
(§2) As a negative control, DUP was prepared.

the immunized peptide [2] = test: Titer against the immunized peptide, BALB/c mice immunized intranasally (Experiment 8); details: intranasal
Method: as §1, §2

OMP [3] = test: Titer against OMP, B10 mice immunized intranasally (Experiment 7); details: intranasal, with or without CT
Method: as §1, §2

the immunized peptide [4] = test: Titer against the immunized peptide, B10 mice immunized intranasally (Experiment 7); details: intranasal, with or without CT
Method: as §1, §2

[5] = tested on: the immunized polypeptide; test: Titer against the immunized peptide, BALB/c mice immunized intraperitoneally (Experiment 5); details: intraperitoneal
From the text: as §1

OMP [6] = test: Titer against OMP, BALB/c mice immunized intraperitoneally (Experiment 5); details: intraperitoneal
From the text: as §1

| Substance | Titer against the immunized peptide (the immunized peptide [2]) | Titer against OMP (OMP [3]) | Titer against the immunized peptide (the immunized peptide [4]) | further results |
| --- | --- | --- | --- | --- |
| OMP-KK-OVAp: SEQ ID NO:40, control, OMP linked by KK to OVA peptide fragment (LAVYWELLAKYLLDRVQKVAKKISQAVHAAHAEINE; OMP-KK-OVAp) | 1,589 | – | – | Titer against OMP (OMP [1]): 108 |
| OMP-KK-RGD-UP: SEQ ID NO:34, RGD at N-terminal side of UP (LAVYWELLAKYLLDRVQKVAKKRGDTYEAALKQYEADL; OMP-KK-RGD-UP) | – | 16 | 723 | – |
| OMP-KK-UP-RGD: SEQ ID NO:35, RGD at C-terminal side of UP (LAVYWELLAKYLLDRVQKVAKKTYEAALKQYEADLRGD; RGD-KK-UP-RGD) | – | 16 | 9,483 | – |
| OMP-KK-UP: SEQ ID NO:20, KK inserted between OMP and UP (LAVYWELLAKYLLDRVQKVAKKTYEAALKQYEADL; OMP-KK-UP) | – | 32 | 128 | Titer against the immunized peptide [5]: 782,685; Titer against OMP (OMP [6]): 1,731 |
| OMP-RGD-KK-UP: SEQ ID NO:33, RGD at C-terminal side of OMP (LAVYWELLAKYLLDRVQKVARGDKKTYEAALKQYEADL; OMP-RGD-KK-UP) | – | 16 | 24,370 | – |
| RGD-OMP-KK-UP: SEQ ID NO:32, RGD at N-terminal side of OMP in OMP-KK-UP (RGDLAVYWELLAKYLLDRVQKVAKKTYEAALKQYEADL; RGD-OMP-KK-UP) | – | 32 | 11,514 | – |
| T1-KK-UP: SEQ ID NO:41, control, T1 peptide of HIV IIIB gp120 linked by KK to UP (KQIINMWQAVGKAMYAKKTYEAALKQYEADL; T1-KK-UP) | 160 | – | – | – |
| T1-RGD-KK-UP: SEQ ID NO:39, T1 T cell epitope, RGD, KK linker, UP (KQIINMWQAVGKAMYARGDKKTYEAALKQYEADL; T1-RGD-KK-UP) | 1,707 | – | – | – |
| UP-KK-OMP: SEQ ID NO:21, KK inserted between UP and OMP (TYEAALKQYEADLKKLAVYWELLAKYLLDRVQKVA; UP-KK-OMP) | – | – | – | Titer against the immunized peptide [5]: 29,921; Titer against OMP (OMP [6]): 1,211 |
